One assay has as its target Large T antigen (Simian virus 40, UniProt P03070). The assay is classed as functional, Betapolyomavirus macacae.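 Also: Confirmatory-stage PubChem screen for compounds that inhibit SV40 T antigen.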
The target of assay [1] is Tyrosyl-DNA phosphodiesterase 2 (Homo sapiens, UniProt O95551). Description: human TDP2 enzyme inhibitors, dose response, biochemical, epi absorbance, IC50 (AID 743297).
Assay [2] concerns the target T1, Heat shock factor protein 1 (Mus musculus, UniProt P38532).
T1 sequence (P38532 whole entry): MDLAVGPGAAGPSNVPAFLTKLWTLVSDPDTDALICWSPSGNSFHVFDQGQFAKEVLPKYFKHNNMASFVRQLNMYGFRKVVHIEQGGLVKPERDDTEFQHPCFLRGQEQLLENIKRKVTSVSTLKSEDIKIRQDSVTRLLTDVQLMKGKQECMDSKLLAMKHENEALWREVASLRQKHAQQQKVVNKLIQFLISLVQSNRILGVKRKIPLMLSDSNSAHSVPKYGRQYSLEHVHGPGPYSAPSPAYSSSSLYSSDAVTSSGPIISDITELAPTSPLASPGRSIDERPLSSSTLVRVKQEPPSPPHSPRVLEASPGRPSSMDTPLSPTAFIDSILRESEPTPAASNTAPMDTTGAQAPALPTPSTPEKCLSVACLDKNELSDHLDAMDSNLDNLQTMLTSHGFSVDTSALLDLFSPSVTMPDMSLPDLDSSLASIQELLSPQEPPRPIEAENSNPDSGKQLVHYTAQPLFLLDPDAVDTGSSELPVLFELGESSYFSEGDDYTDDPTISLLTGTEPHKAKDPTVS
Nature of the assay: HSF1 potentiators in luciferase reporter cells, confirmation, cell-based, NIH3T3, luminescence, dose retest (AID 435004).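 Also: stress induced by proteasome inhibitor MG132 added 30 min after compound; luciferase reporter driven by HSF1 response element in NIH3T3 cells; actives raise luminescence as potentiators of the MG132 stress response.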 Format: functional. (A reporter such as luciferase makes a cellular process visible.)

The target of the next assay is Caspase-7 (Homo sapiens, UniProt P55210). Nature of the assay: human caspase-7 inhibitors, dose response, selectivity assay for caspase-6 inhibitor project, biochemical, DEVD-R110 fluorescence, cherry-pick (AID 743295). The assay is classed as […].
The target of another assay is Caspase-8 (Homo sapiens, UniProt Q14790). Description: caspase-8 inhibition counter-screen, dose response, selectivity assay for caspase-6 inhibitor project, biochemical, Z-IETD-R110 fluorescence, cherry-picked samples (AID 743294). (The purpose of a counterscreen is to sort out artefacts and off-target activity.)
The next assay concerns Vero. Nature of the assay: Vero cell cytotoxicity, cytotoxicity control for flavivirus capping enzyme inhibitors (AID 588742). Format: functional. The settings on record: Chlorocebus sabaeus.
The nature of a further assay: cells. The assay is classed as functional.
In assay [3] the target is Mitochondrial peptide methionine sulfoxide reductase (Bos taurus, UniProt P54149). Description: Absorbance-based biochemical high throughput dose response assay for activators of Methionine sulfoxide reductase A (MsrA). The assay is classed as functional.
Sequence of Mitochondrial peptide methionine sulfoxide reductase (P54149 whole entry): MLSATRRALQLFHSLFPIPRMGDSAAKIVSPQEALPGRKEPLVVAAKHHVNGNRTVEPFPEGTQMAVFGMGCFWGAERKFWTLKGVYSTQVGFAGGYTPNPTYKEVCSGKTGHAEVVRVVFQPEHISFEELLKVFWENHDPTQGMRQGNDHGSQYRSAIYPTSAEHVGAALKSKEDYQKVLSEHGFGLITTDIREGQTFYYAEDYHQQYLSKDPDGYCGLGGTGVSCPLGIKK
The target in another assay is Phospholipase A2 (Homo sapiens, UniProt P04054). Format: functional.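 Also: confirmatory dose-response counterscreen on phospholipase A2, testing hits that came from an ultra-high-throughput screen for ATG4B inhibitors.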
Sequence of Phospholipase A2 (P04054 whole entry): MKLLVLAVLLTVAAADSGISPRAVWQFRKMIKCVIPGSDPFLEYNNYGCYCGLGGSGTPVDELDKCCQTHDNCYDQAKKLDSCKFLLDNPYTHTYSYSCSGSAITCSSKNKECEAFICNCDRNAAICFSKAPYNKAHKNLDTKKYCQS
In assay [4] the target is Lysine-specific demethylase 4C (Homo sapiens, UniProt Q9H3R0). Description: GASC-1 (JMJD2C) histone demethylase inhibitors, dose response, biochemical, DELFIA europium, cherry-picked samples (AID 488835). Format: functional.
Assay [5] concerns the target Photoreceptor-specific nuclear receptor (Homo sapiens, UniProt Q9Y5X4). Format: functional.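 Also: potency for compounds that break the NR2E3 corepressor complex and count as activators.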
For assay [6], the target named is Peroxisome proliferator-activated receptor gamma/Nuclear receptor corepressor 2 (Homo sapiens, UniProt P37231+Q9Y618). Format: functional.
Sequence of Peroxisome proliferator-activated receptor gamma/Nuclear receptor corepressor 2 (P37231 whole entry): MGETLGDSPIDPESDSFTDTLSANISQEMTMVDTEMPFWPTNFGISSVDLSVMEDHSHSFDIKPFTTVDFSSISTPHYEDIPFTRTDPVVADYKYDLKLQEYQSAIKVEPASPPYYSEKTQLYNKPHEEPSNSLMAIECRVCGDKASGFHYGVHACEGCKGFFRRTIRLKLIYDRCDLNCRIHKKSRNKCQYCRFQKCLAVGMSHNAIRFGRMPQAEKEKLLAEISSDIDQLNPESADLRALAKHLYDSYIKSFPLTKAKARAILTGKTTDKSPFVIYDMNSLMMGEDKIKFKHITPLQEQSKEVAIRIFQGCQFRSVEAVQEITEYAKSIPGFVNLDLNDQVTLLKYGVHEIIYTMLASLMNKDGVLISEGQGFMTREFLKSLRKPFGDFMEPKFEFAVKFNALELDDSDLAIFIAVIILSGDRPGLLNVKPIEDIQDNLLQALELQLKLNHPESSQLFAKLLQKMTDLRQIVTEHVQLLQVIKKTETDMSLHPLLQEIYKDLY
Sequence of Peroxisome proliferator-activated receptor gamma/Nuclear receptor corepressor 2 (Q9Y618 whole entry): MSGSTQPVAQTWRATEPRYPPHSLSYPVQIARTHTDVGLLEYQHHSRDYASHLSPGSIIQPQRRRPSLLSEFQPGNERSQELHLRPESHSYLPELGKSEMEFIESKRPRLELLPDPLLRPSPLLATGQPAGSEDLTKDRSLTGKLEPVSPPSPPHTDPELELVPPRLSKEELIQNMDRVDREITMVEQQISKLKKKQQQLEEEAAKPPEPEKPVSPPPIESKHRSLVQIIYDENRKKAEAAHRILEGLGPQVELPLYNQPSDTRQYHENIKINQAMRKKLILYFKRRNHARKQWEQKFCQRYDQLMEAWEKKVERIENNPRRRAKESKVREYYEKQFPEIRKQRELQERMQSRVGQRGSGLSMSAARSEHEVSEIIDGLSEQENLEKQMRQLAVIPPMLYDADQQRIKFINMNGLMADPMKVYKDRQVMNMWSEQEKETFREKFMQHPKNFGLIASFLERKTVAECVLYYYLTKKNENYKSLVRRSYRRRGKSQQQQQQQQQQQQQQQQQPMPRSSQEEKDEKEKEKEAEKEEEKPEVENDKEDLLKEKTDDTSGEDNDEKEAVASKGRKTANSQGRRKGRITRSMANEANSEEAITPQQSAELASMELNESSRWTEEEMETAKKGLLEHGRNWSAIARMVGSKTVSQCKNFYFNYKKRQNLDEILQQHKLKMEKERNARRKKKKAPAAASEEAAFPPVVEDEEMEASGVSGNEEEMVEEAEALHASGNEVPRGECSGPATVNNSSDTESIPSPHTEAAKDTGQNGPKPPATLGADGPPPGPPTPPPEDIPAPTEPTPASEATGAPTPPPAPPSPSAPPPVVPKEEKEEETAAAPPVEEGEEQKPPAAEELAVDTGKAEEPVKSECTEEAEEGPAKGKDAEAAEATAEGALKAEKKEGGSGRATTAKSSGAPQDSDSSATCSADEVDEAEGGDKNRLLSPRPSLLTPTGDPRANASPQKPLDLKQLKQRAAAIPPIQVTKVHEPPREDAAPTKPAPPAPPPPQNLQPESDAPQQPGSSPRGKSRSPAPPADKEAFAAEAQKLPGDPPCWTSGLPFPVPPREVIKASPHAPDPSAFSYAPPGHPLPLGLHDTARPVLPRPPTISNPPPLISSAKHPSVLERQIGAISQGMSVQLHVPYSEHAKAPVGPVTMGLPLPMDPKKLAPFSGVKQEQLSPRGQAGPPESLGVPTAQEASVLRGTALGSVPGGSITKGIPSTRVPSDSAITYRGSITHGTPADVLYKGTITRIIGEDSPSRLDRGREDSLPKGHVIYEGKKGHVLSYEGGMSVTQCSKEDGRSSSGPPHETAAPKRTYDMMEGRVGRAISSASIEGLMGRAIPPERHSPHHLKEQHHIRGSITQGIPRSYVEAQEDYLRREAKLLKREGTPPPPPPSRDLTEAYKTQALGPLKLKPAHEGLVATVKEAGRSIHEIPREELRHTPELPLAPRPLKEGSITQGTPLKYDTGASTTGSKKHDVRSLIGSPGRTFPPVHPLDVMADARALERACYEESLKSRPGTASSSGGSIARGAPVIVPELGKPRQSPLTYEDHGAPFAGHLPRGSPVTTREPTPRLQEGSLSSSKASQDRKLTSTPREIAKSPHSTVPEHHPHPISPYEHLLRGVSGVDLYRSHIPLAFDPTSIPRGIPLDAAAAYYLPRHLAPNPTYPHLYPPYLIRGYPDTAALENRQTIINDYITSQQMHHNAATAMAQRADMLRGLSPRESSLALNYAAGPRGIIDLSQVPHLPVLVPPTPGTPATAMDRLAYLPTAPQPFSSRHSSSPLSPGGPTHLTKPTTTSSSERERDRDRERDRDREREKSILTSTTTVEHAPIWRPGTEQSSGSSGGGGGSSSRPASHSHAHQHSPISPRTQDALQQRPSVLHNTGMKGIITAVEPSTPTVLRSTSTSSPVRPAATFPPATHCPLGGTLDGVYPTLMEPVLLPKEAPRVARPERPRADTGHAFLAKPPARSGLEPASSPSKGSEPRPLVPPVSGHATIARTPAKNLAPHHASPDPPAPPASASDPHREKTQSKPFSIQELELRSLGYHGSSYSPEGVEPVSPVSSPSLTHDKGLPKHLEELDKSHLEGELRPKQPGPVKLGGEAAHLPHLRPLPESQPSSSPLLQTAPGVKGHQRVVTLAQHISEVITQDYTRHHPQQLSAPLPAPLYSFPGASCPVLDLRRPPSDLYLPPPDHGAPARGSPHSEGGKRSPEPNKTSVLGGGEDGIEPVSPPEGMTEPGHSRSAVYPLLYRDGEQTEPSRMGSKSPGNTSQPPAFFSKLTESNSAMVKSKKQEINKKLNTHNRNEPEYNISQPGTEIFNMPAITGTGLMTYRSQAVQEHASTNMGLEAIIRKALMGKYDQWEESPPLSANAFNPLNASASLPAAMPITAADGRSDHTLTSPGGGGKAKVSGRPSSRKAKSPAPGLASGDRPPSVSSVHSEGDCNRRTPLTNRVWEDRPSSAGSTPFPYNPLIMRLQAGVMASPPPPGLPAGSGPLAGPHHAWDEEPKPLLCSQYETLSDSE
For the next assay, the target named is T2, Cysteine protease ATG4B (Homo sapiens, UniProt Q9Y4P1).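 Also: Fluorescence-based dose-response confirmation assay measuring inhibition of ATG4B activity.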
T2 sequence (Q9Y4P1 whole entry): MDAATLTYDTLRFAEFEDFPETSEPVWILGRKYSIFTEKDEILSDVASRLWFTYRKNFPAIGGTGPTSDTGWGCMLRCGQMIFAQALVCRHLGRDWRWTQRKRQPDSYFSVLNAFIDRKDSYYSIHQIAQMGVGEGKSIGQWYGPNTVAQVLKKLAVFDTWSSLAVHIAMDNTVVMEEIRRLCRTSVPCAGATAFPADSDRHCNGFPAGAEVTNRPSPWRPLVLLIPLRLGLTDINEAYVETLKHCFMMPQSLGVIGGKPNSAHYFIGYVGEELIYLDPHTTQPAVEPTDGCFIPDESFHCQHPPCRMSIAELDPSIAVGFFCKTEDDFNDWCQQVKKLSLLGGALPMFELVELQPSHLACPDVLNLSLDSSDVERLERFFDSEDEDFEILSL
The assay is classed as functional.

Assay [7] in a line: inhibitors of firefly luciferase expression or activity, dose response, H4 neuroglioma cells, luminescence (AID 1990). The assay is classed as functional, cell-based.
The target in assay [8] is Mothers against decapentaplegic homolog 3 (Homo sapiens, UniProt P84022). Description: SMAD3 transcription factor inhibitors, dose response (AID 715). The assay is classed as functional.
Sequence of Mothers against decapentaplegic homolog 3 (P84022 whole entry): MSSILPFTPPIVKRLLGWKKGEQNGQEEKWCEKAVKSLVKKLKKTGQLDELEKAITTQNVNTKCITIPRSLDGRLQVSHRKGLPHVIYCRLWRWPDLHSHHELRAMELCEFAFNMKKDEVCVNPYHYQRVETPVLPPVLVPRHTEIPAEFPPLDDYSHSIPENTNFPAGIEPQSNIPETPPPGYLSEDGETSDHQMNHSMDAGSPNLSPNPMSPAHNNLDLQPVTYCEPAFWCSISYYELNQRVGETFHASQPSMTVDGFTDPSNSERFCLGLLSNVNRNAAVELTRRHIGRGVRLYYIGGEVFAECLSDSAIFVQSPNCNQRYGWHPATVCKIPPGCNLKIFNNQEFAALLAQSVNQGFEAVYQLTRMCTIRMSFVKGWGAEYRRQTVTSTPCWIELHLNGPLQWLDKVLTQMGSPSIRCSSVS
Assay [9] concerns the target Ras and Rab interactor 1/Tyrosine-protein kinase ABL1 (Homo sapiens, UniProt P00519+Q13671). The assay is classed as functional.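 Also: biochemical TR-FRET dose-response test measuring inhibition of binding between Rin1 and Abl proteins.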
Assay [10] concerns the target T3, RNA-editing ligase 1, mitochondrial (Trypanosoma brucei brucei, UniProt P86926).
T3 sequence (P86926 whole entry): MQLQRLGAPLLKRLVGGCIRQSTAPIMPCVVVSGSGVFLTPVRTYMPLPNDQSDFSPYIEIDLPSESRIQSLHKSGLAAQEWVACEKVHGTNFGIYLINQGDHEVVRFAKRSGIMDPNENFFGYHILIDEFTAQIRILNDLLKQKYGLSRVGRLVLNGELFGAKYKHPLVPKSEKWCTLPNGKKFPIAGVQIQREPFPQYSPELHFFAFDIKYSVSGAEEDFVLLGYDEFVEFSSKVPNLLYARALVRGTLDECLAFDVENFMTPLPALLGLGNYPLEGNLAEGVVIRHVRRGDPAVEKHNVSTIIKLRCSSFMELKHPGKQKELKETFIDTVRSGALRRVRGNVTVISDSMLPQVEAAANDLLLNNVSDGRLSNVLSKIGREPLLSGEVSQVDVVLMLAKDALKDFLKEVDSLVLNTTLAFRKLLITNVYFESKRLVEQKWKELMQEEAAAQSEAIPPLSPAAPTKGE
Description: TbREL1 ligase inhibitors, dose response, biochemical, fluorescence, Trypanosoma brucei (AID 1117295). Format: functional.

Another assay has as its system INS1. Description: beta cell apoptosis inhibitors, cytokine rescue, dose response, luminescence, retest (AID 449756).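 Also: cell death triggered by IL-1 beta plus TNF-alpha plus IFN-gamma mixture; protective hits raise ATP signal compared with cytokine alone wells.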 The assay is classed as functional, cell-based. Particulars: Rattus norvegicus.
Assay [11] deals with Dual specificity tyrosine-phosphorylation-regulated kinase 1A (Rattus norvegicus, UniProt Q63470). Format: biochemical, Homo sapiens.
Assay [12] deals with Transitional endoplasmic reticulum ATPase (Homo sapiens, UniProt P55072, C522A). Nature of the assay: C522A mutant p97 ATPase inhibitors, dose response, counter-screen for p97 inhibitor project, biochemical, luminescence (AID 1544).
Sequence of Transitional endoplasmic reticulum ATPase (P55072 2-806 C522A limits assumed): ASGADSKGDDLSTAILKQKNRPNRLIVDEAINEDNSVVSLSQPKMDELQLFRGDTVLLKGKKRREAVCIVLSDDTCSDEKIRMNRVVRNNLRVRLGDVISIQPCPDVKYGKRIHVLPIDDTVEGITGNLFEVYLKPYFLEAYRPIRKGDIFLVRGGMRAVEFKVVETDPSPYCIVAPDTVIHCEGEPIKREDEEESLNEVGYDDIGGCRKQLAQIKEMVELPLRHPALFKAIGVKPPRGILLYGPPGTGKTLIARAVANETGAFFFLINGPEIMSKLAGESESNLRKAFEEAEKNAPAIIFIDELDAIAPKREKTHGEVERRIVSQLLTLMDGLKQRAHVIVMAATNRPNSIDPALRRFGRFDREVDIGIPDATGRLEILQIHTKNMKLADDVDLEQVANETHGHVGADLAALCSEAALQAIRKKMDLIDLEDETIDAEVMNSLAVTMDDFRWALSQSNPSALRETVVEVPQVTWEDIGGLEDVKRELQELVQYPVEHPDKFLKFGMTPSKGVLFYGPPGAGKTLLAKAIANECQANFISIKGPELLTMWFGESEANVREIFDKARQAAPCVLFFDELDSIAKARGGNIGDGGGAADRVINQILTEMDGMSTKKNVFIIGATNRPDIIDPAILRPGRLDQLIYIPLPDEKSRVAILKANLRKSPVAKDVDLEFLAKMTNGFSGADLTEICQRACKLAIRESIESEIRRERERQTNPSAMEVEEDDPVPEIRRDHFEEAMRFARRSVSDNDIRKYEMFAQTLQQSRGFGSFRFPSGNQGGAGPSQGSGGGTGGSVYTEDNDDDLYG
The next assay concerns BJ. Nature of the assay: cytotoxicity toward BJ-TERT-LT-ST fibroblasts, dose response, cell-based, RAS-independent, luminescence (AID 1935).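 Also: BJ fibroblasts immortalized with TERT plus LT and ST oncogenes.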 The assay is classed as functional. The settings on record: Homo sapiens.

Results on four compounds are retold here after ChEMBL document CHEMBL1201862, “PubChem BioAssay data set” (2004).

The source made the active and inactive calls.

Sequence of Tyrosyl-DNA phosphodiesterase 2 (O95551 whole entry): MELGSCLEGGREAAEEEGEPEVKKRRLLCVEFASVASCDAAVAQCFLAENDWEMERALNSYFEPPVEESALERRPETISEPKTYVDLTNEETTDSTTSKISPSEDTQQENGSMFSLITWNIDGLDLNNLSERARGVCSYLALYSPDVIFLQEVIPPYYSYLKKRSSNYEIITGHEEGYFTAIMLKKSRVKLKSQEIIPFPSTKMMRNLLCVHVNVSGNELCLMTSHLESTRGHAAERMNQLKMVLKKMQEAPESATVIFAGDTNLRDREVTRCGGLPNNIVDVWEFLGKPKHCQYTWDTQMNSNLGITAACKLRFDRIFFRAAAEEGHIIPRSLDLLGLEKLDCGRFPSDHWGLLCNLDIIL

As usually defined, the IC50 is the concentration needed to halve the response being measured. As to `O=C(CCN1C(=O)/C(=C\c2ccco2)SC1=S)Nc1ccc(C(=O)O)c(O)c1`, the IC50 on Large T antigen was > 100 µM (active).

A word on the EC50: it is the concentration at which the effect is half-maximal. As a reminder, the AC50 is the concentration at which the activity in the assay is half-maximal. `Oc1nc(Nc2ccccc2Cl)cc2ccccc12`: the IC50 in assay [1] was 28.4 µM (inactive). In assay [2], the EC50 is 136 µM (active). Moreover, the half-maximal activity concentration (AC50) at Caspase-7 was 12.2 µM (active); on Caspase-8, 13.4 µM (active).

What is called CC50 is the concentration that lowers cell viability or growth by half. With `O=C1C=C(c2c(O)ccc3ccccc23)c2ccccc2C1=O`, the CC50 in the assay with Vero was 22.1 µM (active).

Consider `Cc1nc2c(=O)n(C)c(=O)nc-2n(C)n1`, for which the half-inhibitory concentration (IC50) in “cells” was 2.27 µM (active); at Phospholipase A2, > 80 µM (inactive); in assay [5], > 39.8 µM (not active); in assay [6] it was > 39.8 µM (not active); at Cysteine protease ATG4B, 3.73 µM (active); in assay [8] it was 0.038 µM (active). Moreover, the IC50 in assay [9] is 0.302 µM (active); in [10] it was 0.411 µM (active); in [12], > 50 µM (not active). In addition, the values for the EC50 (in [3]; in assay [7]; with BJ) were 63.7 µM (inactive), 0.235 µM (active) and 4.95 µM (inconclusive), respectively. For the same compound, the AC50 in assay [4] is 0.425 µM (active); in the assay with INS1 it was 0.695 µM (active); in assay [11], 0.215 µM (active).
